The numbers were not newly measured in patent US20240374634A1, “NUTRACEUTICAL OPHTHALMIC COMPOSITION FOR THE TREATMENT OF RETINAL PATHOLOGIES HAVING A NEOVASCULAR COMPONENT” (Laboratoires THEA, priority 2018, published 2024), which cites them from elsewhere.

Molecules are shown by their SMILES.

The conditions of the series: 300 patients over three years, after a significant increase in DHA in cells.

Take `CC/C=C\C/C=C\C/C=C\C/C=C\C/C=C\C/C=C\CCC(=O)O` [DHA, Docosahexaenoic acid (DHA)]: the “reduction in the risks of developing neovascular AMD” value is recorded as 68%.
